The values that follow come from US20210300943A1, “OGA INHIBITOR COMPOUNDS” (Janssen Pharmaceutica NV, priority 2018, published 2021).

As usually defined, the Emax is the greatest response seen or fitted, relative to the assay's reference.

Structures are written as SMILES.

Assay [1] concerns the target T1, recombinant human Meningioma Expressed Antigen 5 (MGEA5), also referred to as O-GlcNAcase (OGA) (Homo sapiens, UniProt O60502).
T1 construct: Full length OGA enzyme was purchased at OnGene (cat #TP322411); purchased OnGene (so in the source)
T1 sequence (O60502 1-916): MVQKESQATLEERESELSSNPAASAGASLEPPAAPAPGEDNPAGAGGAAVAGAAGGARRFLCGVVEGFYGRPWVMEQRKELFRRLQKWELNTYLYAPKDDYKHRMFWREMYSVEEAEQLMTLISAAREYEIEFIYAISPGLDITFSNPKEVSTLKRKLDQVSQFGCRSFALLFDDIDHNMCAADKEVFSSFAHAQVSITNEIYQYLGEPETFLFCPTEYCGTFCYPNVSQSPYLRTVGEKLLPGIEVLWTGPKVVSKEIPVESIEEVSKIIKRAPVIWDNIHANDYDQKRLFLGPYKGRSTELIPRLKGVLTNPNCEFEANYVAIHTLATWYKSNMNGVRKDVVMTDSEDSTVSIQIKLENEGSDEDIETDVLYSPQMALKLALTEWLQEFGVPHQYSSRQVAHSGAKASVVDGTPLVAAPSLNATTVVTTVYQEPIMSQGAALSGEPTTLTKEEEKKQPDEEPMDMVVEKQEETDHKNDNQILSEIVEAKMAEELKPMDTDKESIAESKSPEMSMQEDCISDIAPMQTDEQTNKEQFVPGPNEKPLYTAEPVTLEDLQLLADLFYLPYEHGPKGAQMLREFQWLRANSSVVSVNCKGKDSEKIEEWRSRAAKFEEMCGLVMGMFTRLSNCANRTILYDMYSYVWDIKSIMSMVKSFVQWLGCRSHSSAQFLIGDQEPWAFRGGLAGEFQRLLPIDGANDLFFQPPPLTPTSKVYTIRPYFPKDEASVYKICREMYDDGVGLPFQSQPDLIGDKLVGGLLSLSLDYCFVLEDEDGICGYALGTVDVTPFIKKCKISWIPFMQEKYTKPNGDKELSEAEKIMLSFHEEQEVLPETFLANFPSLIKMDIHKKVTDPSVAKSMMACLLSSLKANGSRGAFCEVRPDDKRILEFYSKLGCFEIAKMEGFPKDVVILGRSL
The assay can be described thus: OGA biochemical assay (inhibition of FM-GlcNAc hydrolysis, fluorescence). As to conditions: for Emax: maximal effect, read-out: Enzymatic Emax (%); for IC50: read-out: Enzymatic hOGA, pIC50 (converted). The source says: The assay is based on the inhibition of the hydrolysis of fluorescein mono-β-D-N-Acetyl-Glucosamine (FM-GlcNAc) (Mariappa et al. 2015, Biochem J 470:255) by the recombinant human Meningioma Expressed Antigen 5 (MGEA5), also referred to as O-GlcNAcase (OGA). The hydrolysis FM-GlcNAc (Marker Gene technologies, cat #M1485) results in the formation of β-D-N-glucosamineacetate and fluorescein. The fluorescence of the latter can be measured at excitation wavelength 485 nm and emission wavelength 538 nm. An increase in enzyme activity results in an increase in fluorescence signal. Full length OGA enzyme was purchased at OnGene (cat #TP322411). The enzyme was stored in 25 mM Tris.HCl, pH 7.3, 100 mM glycine, 10% glycerol at −20° C. Thiamet G and GlcNAcStatin were tested as reference compounds (Yuzwa et al. 2008 Nature Chemical Biology 4:483; Yuzwa et al. 2012 Nature Chemical Biology 8:393). The assay was performed in 200 mM Citrate/phosphate buffer supplemented with 0.005% Tween-20. 35.6 g Na2HPO42H2O (Sigma, #C0759) were dissolved in 1 L water to obtain a 200 mM solution. 19.2 g citric acid (Merck, #1.06580) was dissolved in 1 L water to obtain a 100 mM solution. pH of the sodiumphosphate solution was adjusted with the citric acid solution to 7.2. The buffer to stop the reaction consists of a 500 mM Carbonate buffer, pH 11.0. 734 mg FM-GlcNAc were dissolved in 5.48 mL DMSO to obtain a 250 mM solution and was stored at −20° C. OGA was used at a 2 nM concentration and FM-GlcNAc at a 100 uM final concentration. Dilutions were prepared in assay buffer.
50 nl of a compound dissolved in DMSO was dispensed on Black Proxiplate TM 384 Plus Assay plates (Perkin Elmer, #6008269) and 3 μl fl-OGA enzyme mix added subsequently. Plates were pre-incubated for 60 min at room temperature and then 2 μl FM-GlcNAc substrate mix added. […] Plates were briefly centrifuged for 1 min at 1000 rpm and incubate at room temperature for 6 h. To stop the reaction 5 μl STOP buffer were added and plates centrifuge again 1 min at 1000 rpm. Fluorescence was quantified in the Thermo Scientific Fluoroskan Ascent or the PerkinElmer EnVision with excitation wavelength 485 nm and emission wavelength 538 nm.
For analysis a best-fit curve is fitted by a minimum sum of squares method. From this an IC50 value and Hill coefficient was obtained. High control (no inhibitor) and low control (saturating concentrations of standard inhibitor) were used to define the minimum and maximum values.

Another assay concerns the target T2, OGA (Homo sapiens, UniProt O60502).
T2 construct: endogenous in cells; host or cells: HEK293 cells inducible for P301L mutant human Tau (2N4R)
T2 sequence (O60502 1-916): T1 sequence (O60502 1-916)
In words: OGA cellular assay (ICC detection of O-GlcNAcylated proteins in HEK293 cells inducible for P301L mutant human Tau). The assay is classed as cell-based. As to conditions: for Emax: HEK293, HEK293 cells inducible for P301L mutant human Tau, maximal effect, Thiamet G 200 uM as maximum; for EC50: HEK293 cells inducible for P301L mutant human Tau, 6 hours incubation, read-out: Cellular hOGA, pEC50 (converted). The method, then:
HEK293 cells inducible for P301L mutant human Tau (isoform 2N4R) were established at Janssen. Thiamet-G was used for both plate validation (high control) and as reference compound (reference EC50 assay validation). OGA inhibition is evaluated through the immunocytochemical (ICC) detection of O-GlcNAcylated proteins by the use of a monoclonal antibody (CTD110.6; Cell Signaling, #9875) detecting 0-GlcNAcylated residues as previously described (Dorfmueller et al. 2010 Chemistry & biology, 17:1250). Inhibition of OGA will result in an increase of O-GlcNAcylated protein levels resulting in an increased signal in the experiment. Cell nuclei are stained with Hoechst to give a cell culture quality control and a rough estimate of immediate compounds toxicity, if any. ICC pictures are imaged with a Perkin Elmer Opera Phenix plate microscope and quantified with the provided software Perkin Elmer Harmony 4.1.
Cells were propagated in DMEM high Glucose (Sigma, #D5796) following standard procedures. 2 days before the cell assay cells are split, counted and seeded in Poly-D-Lysine (PDL) coated 96-wells (Greiner, #655946) plate at a cell density of 12,000 cells per cm^2 (4,000 cells per well) in 100 μl of Assay Medium (Low Glucose medium is used to reduce basal levels of GlcNAcylation) (Park et al. 2014 The Journal of biological chemistry 289:13519). At the day of compound test medium from assay plates was removed and replenished with 90 μl of fresh Assay Medium. 10 μl of compounds at a 10 fold final concentration were added to the wells. Plates were centrifuged shortly before incubation in the cell incubator for 6 hours. DMSO concentration was set to 0.2%. Medium is discarded by applying vacuum. For staining of cells medium was removed and cells washed once with 100 μl D-PBS (Sigma, #D8537). From next step onwards unless other stated assay volume was always 50 μl and incubation was performed without agitation and at room temperature. Cells were fixed in 50 μl of a 4% paraformaldehyde (PFA, Alpha aesar, #043368) PBS solution for 15 minutes at room temperature. […] Before analysis samples were washed 2 times manually for 5 minutes in ICC base buffer.
Imaging is performed using Perkin Elmer Phenix Opera using a water 20× objective and recording 9 fields per well. Intensity readout at 488 nm is used as a measure of O-GlcNAcylation level of total proteins in wells. To assess potential toxicity of compounds nuclei were counted using the Hoechst staining. IC50-values are calculated using parametric non-linear regression model fitting. As a maximum inhibition Thiamet G at a 200 uM concentration is present on each plate. In addition, a concentration response of Thiamet G is calculated on each plate.

Take `Cc1cc(C[C@H]2CCCN(C(C)c3cnc4c(c3)OCC4)C2)cc(C)n1` (mixture of isomers) [Product 57]: in assay [1], the Emax is 101% and the IC50 was 12.6 nM. Also, on OGA, the Emax was found to be 78% and the EC50 is 158 nM.
The corresponding values for `Cc1cc(C2CCCN(C(C)c3ccc4c(n3)OCCO4)C2)cc(C)n1` (stereo not drawn) [Product 1] are 102%, 20 nM, 77% and 100 nM.
The like results for `Cc1cc(C[C@H]2CCCN(C(C)c3cnc4c(c3)OCCO4)C2)cc(C)n1` (stereo partly drawn) [Product 130] were, in that order, 101%, 7.94 nM, 83% and 158 nM.
Take `COc1cc(OC[C@H]2CCCN(C(C)c3ccc4c(n3)OCCO4)C2)cc(C)n1` (single isomer, unassigned) [Product 184]: in assay [1], the Emax worked out at 87% and the IC50 was 2000 nM. On OGA, the Emax was -17% and the EC50 is above 1000 nM.
The like results for `Cc1cc(NCC2CCCN(C(C)c3ccc4c(n3)OCCO4)C2)cc(C)n1` (stereo not drawn) [Product 21] were, in that order, 103%, 5.01 nM, 88% and 15.8 nM.
For the compound `Cc1cc(C2CCCN(C(C)c3nc4c(cc3F)OCCO4)C2)cc(C(F)F)n1` (stereo not drawn) [Product 187], in assay [1], the Emax worked out at 96% and the IC50 is 7.94 nM. At OGA, the Emax worked out at 92% and the EC50 is 12.6 nM.
The corresponding values for `Cc1cc(OC[C@H]2CCCN(C(C)c3nc4c(cc3F)OCCO4)C2)cc(C)n1` (stereo partly drawn) [Product 152] are 102%, 3.98 nM, 94% and 3.98 nM.
The like results for `Cc1cc([C@H]2CCCN([C@H](C)c3ccc4c(n3)OCCO4)C2)cc(C)n1` (single isomer, unassigned) [Product 158] were, in that order, 102%, 7.94 nM, 89% and 39.8 nM.
Consider `Cc1cc(C2CCCN(C(C)c3cc4c(cc3F)OCCO4)C2)cc(C(F)(F)F)n1` (stereo not drawn) [Product 9], for which, in assay [1], the Emax amounted to 102% and the IC50 is 10 nM. In addition, at OGA, the Emax was 92% and the EC50 is 50.1 nM.
The corresponding values for `Cc1cc(C2CCCN(C(C)c3nc4c(cc3F)OCCO4)C2)c(F)c(C)n1` (stereo not drawn) [Product 189] are 100%, 7.94 nM, 88% and 15.8 nM.
The corresponding values for `Cc1cc(C[C@H]2CCCN([C@@H](C)c3ccc4c(n3)OCCO4)C2)cc(C)n1` (single isomer, unassigned) [Product 46] are 101%, 3.16 nM, 90% and 15.8 nM.
`Cc1cc(OC[C@H]2CCCN(C(C)c3nc4c(cc3F)CCO4)C2)cc(C)n1` (single isomer, unassigned) [Product 179]: in assay [1], the Emax was 100% and the IC50 was 200 nM. Also, on OGA, the Emax worked out at 72% and the EC50 is 251 nM.
Consider `Cc1cc(CO[C@@H]2CCCN([C@H](C)c3ccc4c(n3)OCCO4)C2)cc(C)n1` (mixture of isomers) [Product 112], for which, in assay [1], the Emax came to 98% and the IC50 is 200 nM. For the same compound, at OGA, the Emax came to 8% and the EC50 was above 1000 nM.
Take `COc1cc(C2CCCN(C(C)c3cc4c(cc3F)OCCO4)C2)cc(C(F)(F)F)n1` (stereo not drawn) [Product 11]: in assay [1], the Emax worked out at 103% and the IC50 was 20 nM. Moreover, on OGA, the Emax was 70% and the EC50 is 316 nM.
Regarding `Cc1cc(C[C@H]2CCCN(C(C)c3cc4c(cc3F)OCCO4)C2)cc(C)n1` (mixture of isomers) [Product 40], in assay [1], the Emax is 101% and the IC50 was 2 nM. In addition, on OGA, the Emax was 96% and the EC50 was 15.8 nM.
The like results for `Cc1cc(CC2(F)CCCN([C@@H](C)c3nc4c(cc3F)OCCO4)C2)cc(C)n1` (single isomer, unassigned) [Product 175] were, in that order, 92%, 1000 nM, 1% and above 1000 nM.
The like results for `Cc1cc([C@@H]2CCCN(C(C)c3nc4c(cc3F)OCCO4)C2)cc(C)n1` (single isomer, unassigned) [Product 165] were, in that order, 100%, 63.1 nM, 80% and 100 nM.
The corresponding values for `Cc1cc(OC[C@@H]2CCCN(C(C)c3cnc4c(c3)OCCN4)C2)cc(C)n1` (stereo partly drawn) [Product 145] are 99%, 251 nM, 35% and above 1000 nM.
